# From patent US10441787B2, “Neuromodulation device” (GALVANI BIOE[…], priority 2015, dated 2019)
# Entries after “also recorded” stand apart in the source; their conditions may differ.
# Tested on: guinea pig airway smooth muscle tone
# Assay: In-vivo model of baseline airway smooth muscle tone
# Parameters: dose or concentration left out as unconfirmed
# Settings: anesthetized guinea pigs; atropine delivered selectively to the trachea via Krebs buffer perfusion; isometric tension of tracheal rings 6 and 7
# Excerpt: FIG. 10: Schematic illustration of the method for assessing vagally-mediated baseline airay smooth muscle tone in anesthetized guinea pigs. (As described in, Mazzone and Canning, Curr. Protoc. Pharmacol. 2002. May 1; Chapter 5: Unit 5.26.)
# Methods for studying vagally-mediated bronchospasm in anesthetized guinea pigs have been described in detail elsewhere (Mazzone and Canning, Curr Protoc Pharmacol. 2002 May 1; Chapter 5:Unit 5.26; Auton Neurosci. 2002 Aug. 30; 99(2):91-101) and shown in FIG. 10. Guinea pigs are anesthetized with urethane (1.5 g/kg ip). The trachea and vagus nerves are visualized by a midline incision in the neck. The trachea is cannulated and connected to a constant volume ventilator (6 mL/kg body weight). The animals are then paralyzed with succinylcholine (2.5 mg/kg sc). An artery and vein are cannulated to monitor cardiovascular parameters and for drug delivery. The vagus nerves are placed on bipolar electrodes. […] Bronchospasm is recorded as a percentage increase in pulmonary inflation pressure.
# Using the method illustrated in FIG. 10, the portion of the trachea where isometric tension was measured (rings 6 and 7 caudal to the larynx) was perfused with warmed (37° C.), oxygenated Krebs buffer, which was used for selective delivery of atropine ([…]) to the trachea. […]
smiles,measurement,value
CN1[C@@H]2CC[C@H]1C[C@@H](OC(=O)C(CO)c1ccccc1)C2 (stereo partly shown) [atropine],baseline airway smooth muscle tone,decrease in baseline airway smooth muscle tone; also recorded: Inhibition of guinea pig airway smooth muscle tone
